This experiment has as its target T1, Low molecular weight protein-tyrosine phosphatase A (Mycobacterium tuberculosis (strain ATCC 25618 / H37Rv), UniProt P9WIA1).
T1 sequence (P9WIA1 whole entry): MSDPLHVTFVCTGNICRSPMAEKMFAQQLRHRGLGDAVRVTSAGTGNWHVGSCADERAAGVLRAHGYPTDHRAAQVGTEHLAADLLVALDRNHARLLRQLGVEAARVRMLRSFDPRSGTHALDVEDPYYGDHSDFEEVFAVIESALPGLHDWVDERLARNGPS
In words: Inhibition of Mycobacterium tuberculosis PTP-A.

A word on the IC50: it is the concentration at which inhibition is half-maximal. Lower therefore signals greater potency.

In the case of `C=c1[nH]c(=Cc2[nH]c(-c3ccc[nH]3)cc2OC)cc1CCCCC` [PRODIGIOSIN], half-maximal inhibition (IC50) was put at 8.8 µM.
Under `COc1cc(-c2[nH]ccc2Cl)oc1C1=c2[nH]c3cc2[C@H](C(C)C)[C@H]1CCCCCCCC=3` stands 8.8 µM.

The values above are taken from BindingDB's records for doi:10.1021/jm2012062 (Universidade Federal De Santa Catarina, 2012).
